pIC50: −log10 of the molar value. Structures can show the parent of a compound that is named as a salt.
Experiments:
CLK1 = target: T1, CLK1 (Homo sapiens, UniProt P49759); experiment: Radiometric protein kinase assay (33PanQinase Activity Assay), CLK1; assay type: biochemical; details: class by IC50 on CLK1, from dose-response curves; read-out: Potency Class CLK1
T1 construct: GST-fusion or His-tag (not specified per kinase); purchased ProQinase GmbH; host or cells: Sf9 insect cells or E. coli (not specified per kinase)
T1 sequence (P49759 whole entry, the tested form may be a part): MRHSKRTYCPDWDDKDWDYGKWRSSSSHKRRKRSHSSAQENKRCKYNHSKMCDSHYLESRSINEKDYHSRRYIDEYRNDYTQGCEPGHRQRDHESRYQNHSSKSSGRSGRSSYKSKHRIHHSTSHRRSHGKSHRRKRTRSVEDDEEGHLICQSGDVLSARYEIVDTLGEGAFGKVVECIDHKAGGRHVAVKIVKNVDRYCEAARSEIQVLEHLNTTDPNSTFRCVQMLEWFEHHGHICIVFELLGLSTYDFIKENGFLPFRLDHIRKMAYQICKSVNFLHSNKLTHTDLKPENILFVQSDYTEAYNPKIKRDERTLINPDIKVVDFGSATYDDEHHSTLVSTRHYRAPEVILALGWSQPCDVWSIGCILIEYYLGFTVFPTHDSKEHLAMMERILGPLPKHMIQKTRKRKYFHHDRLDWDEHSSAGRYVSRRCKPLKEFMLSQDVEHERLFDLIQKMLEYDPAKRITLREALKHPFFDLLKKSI
Method: Assays were performed by ProQinase GmbH (Engesserstr. 4, D-79108 Freiburg, Germany. www.proqinase.com). The IC50 profile of all compounds was determined using 12 protein kinases (CDK2/cyclin E, CK1ε, CLK1, 2, 3, 4, DYRK1A, 1B, 2, 3, 4, GSK3β).
(§1) The compounds were provided as […] in 100% DMSO. Prior to testing, the 1 μM stock solutions were subjected to a serial, semi-logarithmic dilution using 100% DMSO as a solvent. […] In the process, 90 μl H2O were added to each well of each compound dilution plate. To minimize potential precipitation, the H2O was added to each plate only a few minutes before the transfer of the compound solutions into the assay plates. The plate was shaken thoroughly, resulting in a compound dilution plate/10% DMSO.
(§2) For the assays (see below), 5 μL solution from each well of the compound dilution plates/10% DMSO were transferred into the assay plates. The final volume of the assay was 50 μL. All compounds were tested at 10 final assay concentrations in the range from 10 μM to 30 nM. The final DMSO concentration in the reaction cocktails was 1% in all cases.
(§3) All protein kinases provided by ProQinase were expressed in Sf9 insect cells or in E. coli as recombinant GST-fusion proteins or His-tagged proteins, either as full-length or enzymatically active fragments. All kinases were produced from human cDNAs and purified by either GSH-affinity chromatography or immobilized metal. Affinity tags were removed from a number of kinases during purification. The purity of the protein kinases was examined by SDS-PAGE/Coomassie staining, the identity was checked by mass spectroscopy.
(§4) A radiometric protein kinase assay (33PanQinase® Activity Assay) was used for measuring the kinase activity of the 12 protein kinases. All kinase assays were performed in 96-well FlashPlates™ from PerkinElmer (Boston, MA, USA) in a 50 μL reaction volume. The reaction cocktail was pipetted in four steps in the following order: • 25 μL of assay buffer (standard buffer/[γ-^33P]-ATP), • 10 μL of ATP solution (in H2O), • 5 μL of test compound (in 10% DMSO), • 10 μL of enzyme/substrate mixture.
(§5) The reaction cocktails were incubated at 30° C. for 60 minutes. The reaction was stopped with 50 μL of 2% (v/v) H3PO4, plates were aspirated and washed two times with 200 μL 0.9% (w/v) NaCl. Incorporation of ^33Pi was determined with a microplate scintillation counter (Microbeta, Wallac). The IC50 values for all compounds were calculated from the dose response curves
As a parameter for assay quality, the Z′-factor (Zhang et al., J. Biomol. Screen. 2: 67-73, 1999) for the low and high controls of each assay plate (n=8) was used. ProQinase's criterion for repetition of an assay plate is a Z′-factor below 0.4 (Iversen et al., J. Biomol. Screen. 3: 247-252, 2006).

DYRK1A = target: T2, DYRK1A (Homo sapiens, UniProt Q13627); experiment: Radiometric protein kinase assay (33PanQinase Activity Assay), DYRK1A; assay type: biochemical; details: for pIC50: class by IC50 on DYRK1A, from dose-response curves, read-out: Potency Class DYRK1A; for Selectivity Class DYRK1A vs. CLK1: ratio of IC50 on CLK1 over IC50 on DYRK1A; for Selectivity Class DYRK1A vs. DYRK1B: ratio of IC50 on DYRK1B over IC50 on DYRK1A
T2 construct: GST-fusion or His-tag (not specified per kinase); purchased ProQinase GmbH; host or cells: Sf9 insect cells or E. coli (not specified per kinase)
Method: The IC50 profile of all compounds was determined using 12 protein kinases (CDK2/cyclin E, CK1ε, CLK1, 2, 3, 4, DYRK1A, 1B, 2, 3, 4, GSK3β).
as §1, §2, §3, §4, §5

| SMILES | pIC50 (CLK1) | pIC50 (DYRK1A) | Selectivity Class DYRK1A vs. CLK1 (DYRK1A) | Selectivity Class DYRK1A vs. DYRK1B (DYRK1A) |
| --- | --- | --- | --- | --- |
| O=C1NC(N[C@@H]2CCOC2)=N/C1=C\c1ccc2cnccc2c1 [Compound 66, (4Z)-4-(6-Isoquinolylmethylene)-2-[[(3R)-tetrahydrofuran-3-yl]amino]-1H-imidazol-5-one] | < 7.30 | < 7.30 | III (ratio between 0.5 and 2 fold) | IV (ratio between 0.1 and 0.5 fold) |
| O=C1NC(N[C@@H]2CCCOC2)=N/C1=C\c1ccc2ncccc2c1 [Compound 56, (4Z)-4-(6-quinolylmethylene)-2-[[(3R)-tetrahydropyran-3-yl]amino]-1H-imidazol-5-one] | < 7.30 | < 7.30 | III (ratio between 0.5 and 2 fold) | II (ratio between 2 and 10 fold) |
| O=C1NC(Nc2ccccn2)=N/C1=C\c1ccc2nccnc2c1 [Compound 35, (4Z)-2-(2-pyridylamino)-4-(quinoxalin-6-ylmethylene)-1H-imidazol-5-one] | < 7.30 | < 7.30 | II (ratio between 2 and 10 fold) | II (ratio between 2 and 10 fold) |
| O=C1NC(NCC2CCCCC2)=N/C1=C\c1ccc2nccnc2c1 [Compound 3, (4Z)-2-(cyclohexylmethylamino)-4-(quinoxalin-6-ylmethylene)-1H-imidazol-5-one] | < 7.30 | < 7.30 | III (ratio between 0.5 and 2 fold) | II (ratio between 2 and 10 fold) |
| O=C1NC(NC2COCCOC2)=N/C1=C\c1ccc2nccnc2c1 [Compound 42, (4Z)-2-(1,4-dioxepan-6-ylamino)-4-(quinoxalin-6-ylmethylene)-1H-imidazol-5-one] | < 7.30 | < 7.30 | III (ratio between 0.5 and 2 fold) | II (ratio between 2 and 10 fold) |
| Cc1cnc(CNC2=N/C(=C\c3ccc4ncccc4c3)C(=O)N2)cn1 [Compound 53, (4Z)-2-[(5-Methylpyrazin-2-yl)methylamino]-4-(6-quinolylmethylene)-1H-imidazol-5-one] | < 7.30 | < 7.30 | IV (ratio between 0.1 and 0.5 fold) | III (ratio between 0.5 and 2 fold) |
| O=C1NC(NCC2CCCCC2)=N/C1=C\c1ccc2cnccc2c1 [Compound 58, (4Z)-2-(Cyclohexylmethylamino)-4-(6-isoquinolylmethylene)-1H-imidazol-5-one] | < 7.30 | < 7.30 | IV (ratio between 0.1 and 0.5 fold) | III (ratio between 0.5 and 2 fold) |
| CO[C@@H]1CCC[C@H]1NC1=N/C(=C\c2ccc3nccnc3c2)C(=O)N1 [Compound 4, (4Z)-2-[[(1R,2R)-2-methoxycyclopentyl]amino]-4-(quinoxalin-6-ylmethylene)-1H-imidazol-5-one] | < 7.30 | < 7.30 | II (ratio between 2 and 10 fold) | II (ratio between 2 and 10 fold) |
| CO[C@@H]1CCC[C@@H](NC2=N/C(=C\c3ccc4nccnc4c3)C(=O)N2)CC1 (racemic) [Compound 7, (+)-(4Z)-2-[[trans-4-methoxycycloheptyl]amino]-4-(quinoxalin-6-ylmethylene)-1H-imidazol-5-one] | < 7.30 | < 7.30 | II (ratio between 2 and 10 fold) | II (ratio between 2 and 10 fold) |
| CN1C(=O)/C(=C/c2ccc3cnccc3c2)N=C1NC1CCCCC1 [Compound 86, (5Z)-2-(Cyclohexylamino)-3-methyl-5-(isoquinolin-6-ylmethylene)imidazol-4-one] | < 7.30 | < 7.30 | III (ratio between 0.5 and 2 fold) | IV (ratio between 0.1 and 0.5 fold) |
| Cc1csc(CNC2=N/C(=C\c3ccc4nccnc4c3)C(=O)N2)n1 [Compound 31, (4Z)-2-[(4-methylthiazol-2-yl)methylamino]-4-(quinoxalin-6-ylmethylene)-1H-imidazol-5-one] | < 7.30 | < 7.30 | III (ratio between 0.5 and 2 fold) | III (ratio between 0.5 and 2 fold) |
| COC[C@@H](CC(C)C)NC1=N/C(=C\c2ccc3ncccc3c2)C(=O)N1 [Compound 47, (4Z)-2-[[(1R)-1-(methoxymethyl)-3-methyl-butyl]amino]-4-(6-quinolylmethylene)-1H-imidazol-5-one] | < 7.30 | 7.30 to 7.60 | II (ratio between 2 and 10 fold) | II (ratio between 2 and 10 fold) |
| CC(C)C[C@H](CF)NC1=N/C(=C\c2ccc3nccnc3c2)C(=O)N1 [Compound 14, (4Z)-2-[[(1R)-1-(fluoromethyl)-3-methyl-butyl]amino]-4-(quinoxalin-6-ylmethylene)-1H-imidazol-5-one] | < 7.30 | 7.60 to 8.00 | II (ratio between 2 and 10 fold) | II (ratio between 2 and 10 fold) |
| O=C1NC(N[C@@H]2CCCOC2)=N/C1=C\c1ccc2cnccc2c1 [Compound 67, (4Z)-4-(6-isoquinolylmethylene)-2-[[(3R)-tetrahydropyran-3-yl]amino]-1H-imidazol-5-one] | < 7.30 | < 7.30 | III (ratio between 0.5 and 2 fold) | III (ratio between 0.5 and 2 fold) |
| NC[C@H](NC1=N/C(=C\c2ccc3nccnc3c2)C(=O)N1)c1ccccc1 [Compound 28, (4Z)-2-[[(1R)-2-amino-1-phenyl-ethyl]amino]-4-(quinoxalin-6-ylmethylene)-1H-imidazol-5-one dihydrochloride] | 7.30 to 7.60 | 7.30 to 7.60 | III (ratio between 0.5 and 2 fold) | II (ratio between 2 and 10 fold) |
| CN1C(=O)/C(=C/c2ccc3ncccc3c2)N=C1NC1CCCCC1 [Compound 84, (5Z)-2-(Cyclohexylamino)-3-methyl-5-(quinolin-6-ylmethylene)imidazol-4-one] | < 7.30 | < 7.30 | III (ratio between 0.5 and 2 fold) | III (ratio between 0.5 and 2 fold) |
| CN1CCN(c2ccc(NC3=N/C(=C\c4ccc5nccnc5c4)C(=O)N3)cc2)CC1 [Compound 33, (4Z)-2-[4-(4-Methylpiperazin-1-yl)anilino]-4-(quinoxalin-6-ylmethylene)-1H-imidazol-5-one] | < 7.30 | 7.30 to 7.60 | II (ratio between 2 and 10 fold) | II (ratio between 2 and 10 fold) |
| CN1C(=O)/C(=C/c2ccc3nccnc3c2)N=C1NC1CCCCCC1 [Compound 83, (5Z)-2-(Cycloheptylamino)-3-methyl-5-(quinoxalin-6-ylmethylene)imidazol-4-one] | < 7.30 | < 7.30 | III (ratio between 0.5 and 2 fold) | III (ratio between 0.5 and 2 fold) |
| COC[C@H](NC1=N/C(=C\c2ccc3nccnc3c2)C(=O)N1)c1ccccc1 [Compound 26, (4Z)-2-[[(1R)-2-methoxy-1-phenyl-ethyl]amino]-4-(quinoxalin-6-ylmethylene)-1H-imidazol-5-one] | < 7.30 | < 7.30 | III (ratio between 0.5 and 2 fold) | II (ratio between 2 and 10 fold) |
